Measured values reported in paper PMC5218480 (PLoS ONE, 2017).

System: MV-4-11 cells
Experiment: Gene expression microarray analysis (Affymetrix PrimeView) and GSEA
Assay type: cell-based, human
Set-up: RFU PODN (11730768_x_at) / Fold change /veh PODN (11730768_x_at) / RFU LINC00158 (11744669_a_at) / Fold change /veh LINC00158 (11744669_a_at) / RFU DUSP10 (11751237_a_at) / Fold change /veh DUSP10 (11751237_a_at) / RFU ID3 (11757404_x_at) / Fold change /veh ID3 (11757404_x_at) / RFU PLEKHG5 (11737974_s_at) / Fold change /veh PLEKHG5 (11737974_s_at) / RFU LRRC4B (11730491_at) / Fold change /veh LRRC4B (11730491_at) / RFU GIMAP4 (11747438_a_at) / Fold change /veh GIMAP4 (11747438_a_at) / RFU KRT8 (11758183_x_at) / Fold change /veh KRT8 (11758183_x_at) / RFU CNN1 (11734310_a_at) / Fold change /veh CNN1 (11734310_a_at) / RFU VPS37D (11726825_at) / Fold change /veh VPS37D (11726825_at) / RFU C10orf10 (11716522_x_at) / Fold change /veh C10orf10 (11716522_x_at) / RFU KIR2DL2 /// KIR2DL4 /// KIR2DL5A /// KIR2DL5B /// KIR2DS1 /// KIR2DS2 /// KIR2DS3 /// KIR2DS4 /// KIR3DL3 /// KIR3DL3 /// KIR3DS1 (11738374_at) / Fold change /veh KIR2DL2 /// KIR2DL4 /// KIR2DL5A /// KIR2DL5B /// KIR2DS1 /// KIR2DS2 /// KIR2DS3 /// KIR2DS4 /// KIR3DL3 /// KIR3DL3 /// KIR3DS1 (11738374_at) / RFU C1QL1 (11718748_at) / Fold change /veh C1QL1 (11718748_at) / RFU TMPRSS4 (11747572_a_at) / Fold change /veh TMPRSS4 (11747572_a_at) / RFU HAMP (11756126_x_at) / Fold change /veh HAMP (11756126_x_at) / RFU RNFT2 (11725882_a_at) / Fold change /veh RNFT2 (11725882_a_at) / RFU NR4A2 (11747474_a_at) / Fold change /veh NR4A2 (11747474_a_at) / RFU ABCC12 (11746883_a_at) / Fold change /veh ABCC12 (11746883_a_at) / RFU TMEM136 (11760407_x_at) / Fold change /veh TMEM136 (11760407_x_at) / RFU CLDN22 /// WWC2 (11732394_at) / Fold change /veh CLDN22 /// WWC2 (11732394_at) / RFU HLA-DPB1 (11760878_x_at) / Fold change /veh HLA-DPB1 (11760878_x_at) / RFU SPINT1 (11716480_a_at) / Fold change /veh SPINT1 (11716480_a_at) / RFU GAP43 (11754022_s_at) / Fold change /veh GAP43 (11754022_s_at) / RFU A4GNT (11735810_at) / Fold change /veh A4GNT (11735810_at) / RFU PRB3 (11715151_x_at) / Fold change /veh PRB3 (11715151_x_at) / RFU TUBB4B (11761932_at) / Fold change /veh TUBB4B (11761932_at) / RFU CAPN14 (11732068_a_at) / Fold change /veh CAPN14 (11732068_a_at) / RFU TMCC2 (11721928_a_at) / Fold change /veh TMCC2 (11721928_a_at) / RFU IRGQ (11745062_a_at) / Fold change /veh IRGQ (11745062_a_at) / RFU FAM174B (11720279_a_at) / Fold change /veh FAM174B (11720279_a_at) / RFU TMPRSS4 (11748680_a_at) / Fold change /veh TMPRSS4 (11748680_a_at) / RFU FAM212B (11763350_a_at) / Fold change /veh FAM212B (11763350_a_at) / RFU PLEKHG5 (11743358_a_at) / Fold change /veh PLEKHG5 (11743358_a_at) / RFU ZSCAN30 (11745921_a_at) / Fold change /veh ZSCAN30 (11745921_a_at) / RFU CMKLR1 (11741424_a_at) / Fold change /veh CMKLR1 (11741424_a_at) / RFU LOC101060620 /// MAPK8IP1 (11723275_at) / Fold change /veh LOC101060620 /// MAPK8IP1 (11723275_at) / RFU SPTSSB (11747773_x_at) / Fold change /veh SPTSSB (11747773_x_at) / RFU PRSS12 (11739890_at) / Fold change /veh PRSS12 (11739890_at) / RFU BIN1 (11741810_x_at) / Fold change /veh BIN1 (11741810_x_at) / RFU WNT11 (11732464_a_at) / Fold change /veh WNT11 (11732464_a_at) / RFU C10orf10 (11716521_a_at) / Fold change /veh C10orf10 (11716521_a_at) / RFU C5orf56 (11738089_at) / Fold change /veh C5orf56 (11738089_at) / RFU CYB561 (11721691_x_at) / Fold change /veh CYB561 (11721691_x_at) / RFU ANKRD19P (11752326_a_at) / Fold change /veh ANKRD19P (11752326_a_at) / RFU OR2T12 /// OR2T33 /// OR2T8 (11738714_s_at) / Fold change /veh OR2T12 /// OR2T33 /// OR2T8 (11738714_s_at) / RFU VCAN (11748164_a_at) / Fold change /veh VCAN (11748164_a_at) / RFU JSRP1 (11732532_at) / Fold change /veh JSRP1 (11732532_at) / RFU KRTAP10-11 (11738290_x_at) / Fold change /veh KRTAP10-11 (11738290_x_at) / RFU MYO3A (11730013_a_at) / Fold change /veh MYO3A (11730013_a_at) / RFU EBF3 (11725865_a_at) / Fold change /veh EBF3 (11725865_a_at) / RFU CAMK2N1 (11719241_x_at) / Fold change /veh CAMK2N1 (11719241_x_at) / RFU C5orf56 (11738088_a_at) / Fold change /veh C5orf56 (11738088_a_at) / RFU OLFML3 (11715873_a_at) / Fold change /veh OLFML3 (11715873_a_at) / RFU LOC100653217 /// NTM (11731650_a_at) / Fold change /veh LOC100653217 /// NTM (11731650_a_at) / RFU MAPK11 (11762145_a_at) / Fold change /veh MAPK11 (11762145_a_at) / RFU FIZ1 (11724087_x_at) / Fold change /veh FIZ1 (11724087_x_at) / RFU OASL (11726364_x_at) / Fold change /veh OASL (11726364_x_at) / RFU SOX15 (11748057_x_at) / Fold change /veh SOX15 (11748057_x_at) / RFU CD79A (11719716_a_at) / Fold change /veh CD79A (11719716_a_at) / RFU HIST1H1D (11736915_at) / Fold change /veh HIST1H1D (11736915_at) / RFU CASKIN2 (11723855_a_at) / Fold change /veh CASKIN2 (11723855_a_at) / RFU LOC730098 (11760151_x_at) / Fold change /veh LOC730098 (11760151_x_at) / RFU OR4N2 (11742367_at) / Fold change /veh OR4N2 (11742367_at) / RFU PRRT2 (11749266_a_at) / Fold change /veh PRRT2 (11749266_a_at) / RFU SNX32 (11753110_a_at) / Fold change /veh SNX32 (11753110_a_at) / RFU CDHR5 (11726645_a_at) / Fold change /veh CDHR5 (11726645_a_at) / RFU RCAN1 (11760418_a_at) / Fold change /veh RCAN1 (11760418_a_at) / RFU FAM167A (11723789_a_at) / Fold change /veh FAM167A (11723789_a_at) / RFU FAM26E (11764081_at) / Fold change /veh FAM26E (11764081_at) / RFU ISYNA1 (11749810_s_at) / Fold change /veh ISYNA1 (11749810_s_at) / RFU ACY1 (11761880_at) / Fold change /veh ACY1 (11761880_at) / RFU 11764098_at / Fold change /veh 11764098_at / RFU SAMD14 (11745864_x_at) / Fold change /veh SAMD14 (11745864_x_at) / RFU NPB (11741838_a_at) / Fold change /veh NPB (11741838_a_at) / RFU TMPRSS6 (11731388_a_at) / Fold change /veh TMPRSS6 (11731388_a_at) / RFU KRTAP10-2 (11738614_at) / Fold change /veh KRTAP10-2 (11738614_at) / RFU ARHGAP8 /// PRR5-ARHGAP8 (11727945_x_at) / Fold change /veh ARHGAP8 /// PRR5-ARHGAP8 (11727945_x_at) / RFU KRTAP5-7 /// NADSYN1 (11734609_at) / Fold change /veh KRTAP5-7 /// NADSYN1 (11734609_at) / RFU RASL12 (11751679_a_at) / Fold change /veh RASL12 (11751679_a_at) / RFU CDKN2B (11736163_a_at) / Fold change /veh CDKN2B (11736163_a_at) / RFU PRF1 (11729649_at) / Fold change /veh PRF1 (11729649_at) / RFU, ZNF638 /// ZNF638-IT1 / Fold change vs veh, ZNF638 /// ZNF638-IT1 / RFU, PANK3 / Fold change vs veh, PANK3 / RFU, SH3YL1 / Fold change vs veh, SH3YL1 / RFU, ZEB2 / Fold change vs veh, ZEB2 / RFU, NRIP1 / Fold change vs veh, NRIP1 / RFU, PTTG1IP / Fold change vs veh, PTTG1IP / RFU, CAPN2 / Fold change vs veh, CAPN2 / RFU, MED14 / Fold change vs veh, MED14 / RFU, SNORA58 / Fold change vs veh, SNORA58 / RFU, C1orf63 / Fold change vs veh, C1orf63 / RFU, LRRFIP1 / Fold change vs veh, LRRFIP1 / RFU, NDUFAF7 / Fold change vs veh, NDUFAF7 / RFU, SLC12A2 / Fold change vs veh, SLC12A2 / RFU, IBTK / Fold change vs veh, IBTK / RFU, ESF1 / Fold change vs veh, ESF1 / Fold change vs veh, TMEM50B / RFU, TAOK1 / Fold change vs veh, TAOK1 / RFU, ACBD3 / Fold change vs veh, ACBD3 / RFU, TMA16 / Fold change vs veh, TMA16 / RFU, RWDD3 / Fold change vs veh, RWDD3 / RFU, BCAT1 / Fold change vs veh, BCAT1 / RFU, EDEM3 / Fold change vs veh, EDEM3 / RFU, TMEM33 / Fold change vs veh, TMEM33 / RFU, WDR75 / Fold change vs veh, WDR75 / RFU, AHCTF1 / Fold change vs veh, AHCTF1 / RFU, TFRC / Fold change vs veh, TFRC / RFU, ZDHHC17 / Fold change vs veh, ZDHHC17 / RFU, NOM1 / Fold change vs veh, NOM1 / RFU, ARL8B / Fold change vs veh, ARL8B / RFU, ZBTB11 / Fold change vs veh, ZBTB11 / RFU, TAMM41 / Fold change vs veh, TAMM41 / RFU, KIAA1704 /// LOC100996395 / Fold change vs veh, KIAA1704 /// LOC100996395 / RFU, ING1 / Fold change vs veh, ING1 / RFU, TRMT61B / Fold change vs veh, TRMT61B / RFU, FUBP3 / Fold change vs veh, FUBP3 / RFU, TP53 / Fold change vs veh, TP53 / RFU, TNKS2 / Fold change vs veh, TNKS2 / RFU, ZFP14 / Fold change vs veh, ZFP14 / RFU, ACTR2 / Fold change vs veh, ACTR2 / RFU, PPP3R1 / Fold change vs veh, PPP3R1 / RFU, PIK3R1 / Fold change vs veh, PIK3R1 / RFU, HNRNPA1 / Fold change vs veh, HNRNPA1 / RFU, RNF170 / Fold change vs veh, RNF170 / RFU, ZNF28 / Fold change vs veh, ZNF28 / RFU, RNGTT / Fold change vs veh, RNGTT / RFU, OGT / Fold change vs veh, OGT / RFU, BRD1 / Fold change vs veh, BRD1 / RFU, MARS / Fold change vs veh, MARS / RFU, ZNF655 / Fold change vs veh, ZNF655 / RFU, FAHD1 / Fold change vs veh, FAHD1 / RFU, BDP1 / Fold change vs veh, BDP1 / RFU, LRRCC1 / Fold change vs veh, LRRCC1 / RFU, ARID1A / Fold change vs veh, ARID1A / RFU, ZNF146 / Fold change vs veh, ZNF146 / RFU, ZNF330 / Fold change vs veh, ZNF330 / RFU, GPN3 / Fold change vs veh, GPN3 / RFU, C9orf123 / Fold change vs veh, C9orf123 / RFU, N4BP2L2 / Fold change vs veh, N4BP2L2 / RFU, ARFIP1 / Fold change vs veh, ARFIP1 / RFU, FAM179B / Fold change vs veh, FAM179B / RFU, BCL10 / Fold change vs veh, BCL10 / RFU, UHRF1BP1L / Fold change vs veh, UHRF1BP1L / RFU, BET1 / Fold change vs veh, BET1 / RFU, CNOT2 / Fold change vs veh, CNOT2 / RFU, ZNF268 / Fold change vs veh, ZNF268 / Fold change vs veh, ZNF507 / RFU, DGCR2 / Fold change vs veh, DGCR2 / RFU, WDSUB1 / Fold change vs veh, WDSUB1 / Fold change vs veh, HSP90B1 /// MIR3652 / RFU, ADSS / Fold change vs veh, ADSS / RFU, GK / Fold change vs veh, GK / RFU, ZNF148 / Fold change vs veh, ZNF148 / RFU, TAF9 / Fold change vs veh, TAF9 / RFU, SLC1A5 / Fold change vs veh, SLC1A5 / RFU, SLMO2 / Fold change vs veh, SLMO2 / RFU, ABCC4 / Fold change vs veh, ABCC4 / RFU, LOC101060439 /// RAP1B / Fold change vs veh, LOC101060439 /// RAP1B / RFU, RFX7 / Fold change vs veh, RFX7 / RFU, GTPBP10 / Fold change vs veh, GTPBP10 / RFU, CNEP1R1 / Fold change vs veh, CNEP1R1 / RFU, BIVM-ERCC5 /// ERCC5 / Fold change vs veh, BIVM-ERCC5 /// ERCC5 / RFU, ILF3 / Fold change vs veh, ILF3 / RFU 11762660_at / Fold change /veh 11762660_at / RFU VCAN (11757783_s_at) / Fold change /veh VCAN (11757783_s_at) / RFU DDX43 (11728927_at) / Fold change /veh DDX43 (11728927_at) / RFU KRT8 (11758188_x_at) / Fold change /veh KRT8 (11758188_x_at) / RFU NKD1 (11759106_at) / Fold change /veh NKD1 (11759106_at) / RFU SRD5A1 (11742802_a_at) / Fold change /veh SRD5A1 (11742802_a_at) / RFU TPSAB1 /// TPSB2 (11721975_s_at) / Fold change /veh TPSAB1 /// TPSB2 (11721975_s_at) / RFU GSTM3 (11746129_a_at) / Fold change /veh GSTM3 (11746129_a_at) / RFU IL23R (11737362_x_at) / Fold change /veh IL23R (11737362_x_at) / RFU TMEM51 (11727254_a_at) / Fold change /veh TMEM51 (11727254_a_at) / RFU PIWIL2 (11732686_x_at) / Fold change /veh PIWIL2 (11732686_x_at) / RFU ORM1 (11744905_x_at) / Fold change /veh ORM1 (11744905_x_at) / RFU CCDC152 (11743942_at) / Fold change /veh CCDC152 (11743942_at) / RFU ECM1 (11717891_a_at) / Fold change /veh ECM1 (11717891_a_at) / RFU IL23R (11748794_a_at) / Fold change /veh IL23R (11748794_a_at) / RFU TNFAIP8L3 (11732012_x_at) / Fold change /veh TNFAIP8L3 (11732012_x_at) / RFU MBOAT4 (11741988_at) / Fold change /veh MBOAT4 (11741988_at) / RFU 11764193_at / Fold change /veh 11764193_at / RFU TMEM53 (11763286_at) / Fold change /veh TMEM53 (11763286_at) / RFU MAGEB2 (11727129_at) / Fold change /veh MAGEB2 (11727129_at) / RFU TMEM200A (11744735_a_at) / Fold change /veh TMEM200A (11744735_a_at) / RFU CCDC152 (11751479_a_at) / Fold change /veh CCDC152 (11751479_a_at) / RFU FAM211A (11726209_a_at) / Fold change /veh FAM211A (11726209_a_at) / RFU RGS16 (11746705_a_at) / Fold change /veh RGS16 (11746705_a_at) / RFU VCAN (11755009_s_at) / Fold change /veh VCAN (11755009_s_at) / RFU RHOB (11743442_s_at) / Fold change /veh RHOB (11743442_s_at) / RFU RGS16 (11720943_a_at) / Fold change /veh RGS16 (11720943_a_at) / RFU RGS16 (11720944_at) / Fold change /veh RGS16 (11720944_at) / RFU, VPS4B / Fold change vs veh, VPS4B / RFU, CREB1 / Fold change vs veh, CREB1 / RFU, DNAJC13 / Fold change vs veh, DNAJC13 / RFU, GNAQ / Fold change vs veh, GNAQ / RFU, CDK5R1 / Fold change vs veh, CDK5R1 / RFU, ZRANB3 / Fold change vs veh, ZRANB3 / RFU, CUL4A / Fold change vs veh, CUL4A / RFU, CCNY / Fold change vs veh, CCNY / RFU, UFL1 / Fold change vs veh, UFL1 / RFU, COG3 / Fold change vs veh, COG3 / RFU, DIAPH2 / Fold change vs veh, DIAPH2 / RFU, SKA2 / Fold change vs veh, SKA2 / RFU, AFF3 / Fold change vs veh, AFF3 / RFU, LMF1 / Fold change vs veh, LMF1 / RFU, IPO11 / Fold change vs veh, IPO11 / RFU, DFFB / Fold change vs veh, DFFB / RFU, FOXP1 / Fold change vs veh, FOXP1 / RFU, CARD8 / Fold change vs veh, CARD8 / RFU, STRN3 / Fold change vs veh, STRN3 / RFU, ADK / Fold change vs veh, ADK / RFU, RASSF2 / Fold change vs veh, RASSF2 / RFU, WIPF1 / Fold change vs veh, WIPF1 / RFU, LARP1B / Fold change vs veh, LARP1B / RFU, RASA1 / Fold change vs veh, RASA1 / RFU, RB1 / Fold change vs veh, RB1 / RFU, PPFIA1 / Fold change vs veh, PPFIA1 / RFU, MAT2A / Fold change vs veh, MAT2A / RFU, CCT5 / Fold change vs veh, CCT5 / RFU, WDR92 / Fold change vs veh, WDR92 / RFU, CUX1 / Fold change vs veh, CUX1 / RFU, TTC7A / Fold change vs veh, TTC7A / RFU, TMEM135 / Fold change vs veh, TMEM135 / RFU, DEPTOR / Fold change vs veh, DEPTOR / RFU, CPM / Fold change vs veh, CPM / RFU, DNAJB6 / Fold change vs veh, DNAJB6 / RFU, CACNA2D3 / Fold change vs veh, CACNA2D3 / RFU, DTX4 / Fold change vs veh, DTX4 / RFU, TFCP2 / Fold change vs veh, TFCP2 / RFU, GMCL1 /// GMCL1P1 / Fold change vs veh, GMCL1 /// GMCL1P1 / RFU, AEBP2 / Fold change vs veh, AEBP2 / RFU, SNHG1 /// SNORD22 /// SNORD25 /// SNORD26 /// SNORD27 /// SNORD28 /// SNORD29 /// SNORD31 / Fold change vs veh, SNHG1 /// SNORD22 /// SNORD25 /// SNORD26 /// SNORD27 /// SNORD28 /// SNORD29 /// SNORD31 / Fold change (Aza/veh), C12orf56 (ProbeSet 11735607_a_at) / Fold change (ACY-1035/veh), C12orf56 (ProbeSet 11735607_a_at) / Fold change (Aza/veh), FGFR1OP (ProbeSet 11751329_s_at) / Fold change (ACY-1035/veh), FGFR1OP (ProbeSet 11751329_s_at) / Fold change (Aza/veh), VPS36 (ProbeSet 11739960_a_at) / Fold change (ACY-1035/veh), VPS36 (ProbeSet 11739960_a_at) / RFU SYPL1 (11715823_x_at) / Fold change /veh SYPL1 (11715823_x_at) / RFU IGFBP7 (11715501_s_at) / Fold change /veh IGFBP7 (11715501_s_at) / RFU REEP3 (11722064_at) / Fold change /veh REEP3 (11722064_at) / RFU IGLL1 (11728026_x_at) / Fold change /veh IGLL1 (11728026_x_at): dose or concentration left out as unconfirmed
Settings: MV-4-11 cells, 48 hours

Nc1ccc(-c2cccs2)cc1NC(=O)c1ccc2c(c1)cc(C1CC1)n2CCN1CCOCC1 [ACY-1035]
Fold change /veh RCAN1 (11760418_a_at): 1.01
